# Key:
# Format in all cases: in vivo
# corn [1] = assay: Upland soil treatment test (6), phytotoxicity; settings: 100 g/hectare, 20th day after treatment; note: ranges in brackets are in %
# Procedure: (§1) 90 Parts by weight of the above carrier and 10 parts by weight of each of Compounds obtained in the above Preparation Examples were uniformly pulverized and mixed to obtain herbicides. Further, for Herbicide Comparative Examples, comparative herbicides were prepared by uniformly pulverizing and mixing 90 parts by weight of the above carrier and 10 parts by weight of each of the following Compounds x, y, A, B and C.
# (§2) (6) Biological Test (Upland Soil Treatment Test, Herbicide Examples 27˜42 and Comparative Example 10).
# (§3) Seeds of weeds such as large crabgrass, barnyard grass, green foxtail, cocklebur , velvetleaf and slender amaranth and seeds of corn, wheat and barley were sown in 1/5,000-are Wagner pots filled with upland soil, and covered with upland soil. Then, a predetermined amount of the herbicide prepared in the above (1) was suspended in water and uniformly sprayed onto the soil surface. Thereafter, the plants were grown in the greenhouse, and on 20th day after the treatment, the herbicide was evaluated f or herbicidal efficacy.
# (§4) The dosage of each herbicide is indicated as an amount of the active ingredient per hectare. Further, air-dried weight were measured and the herbicidal efficacy and the phytotoxicity to corn are shown on the basis of the ratings described below.
# velvetleaf [2] = assay: Upland soil treatment test (6); settings: 100 g/hectare, 20th day after treatment; note: ranges in brackets are in %
# Procedure: as §1, §2, §3, §4
# green foxtail [3] = assay: Upland soil treatment test (6); settings: 100 g/hectare, 20th day after treatment; note: ranges in brackets are in %
# Procedure: as §1, §2, §3, §4
# large crabgrass [4] = assay: Upland soil treatment test (6); settings: 100 g/hectare, 20th day after treatment; note: ranges in brackets are in %
# Procedure: as §1, §2, §3, §4
# cocklebur [5] = assay: Upland soil treatment test (6); settings: 100 g/hectare, 20th day after treatment; note: ranges in brackets are in %
# Procedure: as §1, §2, §3, §4
# slender amaranth [6] = assay: Upland soil treatment test (6); settings: 100 g/hectare, 20th day after treatment; note: ranges in brackets are in %
# Procedure: as §1, §2, §3, §4
# barnyard grass [7] = assay: Upland soil treatment test (6); settings: 100 g/hectare, 20th day after treatment; note: ranges in brackets are in %
# Procedure: as §1, §2, §3, §4
# paddy rice = assay: Submergence soil treatment test (4), phytotoxicity; settings: twenty days after treatment
# Procedure: as §1
# (§5) (4) Biological Test (Submergence Soil Treatment Test, Herbicide Examples 5˜9 and Comparative Examples 5˜8 and Reference Example 1 and 2)
# (§6) 1/15,500-are porcelain pots were filled with paddy field soil, and seeds of barnyard grass and umbrella plant were sown in a surface layer of the soil, and paddy rice at the 2-leaf stage was transplanted. Then, the weeds were treated by uniformly spraying a diluted solution of a predetermined amount of the herbicide prepared in the above (1) onto the water surface at the time of germination of the weeds, and then the pots were allowed to stand in a greenhouse while water was properly sprayed. […] The dosage of each herbicide is shown as an amount of the active ingredient per 10 areas. Further, air-dried weights were measured, and the herbicidal efficacy and the phytotoxicity to the paddy rice were shown as follows.
# velvetleaf [8] = assay: Upland soil treatment test (5); settings: dosage 100 g a.i./hectare, 20th day after treatment; note: ranges in brackets are in %
# Procedure: as §1
# (§7) (5) Biological Test (Upland Soil Treatment Test, Herbicide Examples 10-26 and Comparative Example 9)
# as §3, with “cocklebur,” for “cocklebur ,”, “for” for “f or”
# (§8) The dosage of each herbicide is indicated as an amount of the active ingredient per hectare. Further, air-dried weight were measured, and herbicidal efficacy and the pytotoxicity to corn are shown on the basis of the ratings described below.
# green foxtail [9] = assay: Upland soil treatment test (5); settings: dosage 100 g a.i./hectare, 20th day after treatment; note: ranges in brackets are in %
# Procedure: as §1, §7
# as §3, with “cocklebur,” for “cocklebur ,”, “for” for “f or”
# as §8
# large crabgrass [10] = assay: Upland soil treatment test (5); settings: dosage 100 g a.i./hectare, 20th day after treatment; note: ranges in brackets are in %
# Procedure: as §1, §7
# as §3, with “cocklebur,” for “cocklebur ,”, “for” for “f or”
# as §8
# cocklebur [11] = assay: Upland soil treatment test (5); settings: dosage 100 g a.i./hectare, 20th day after treatment; note: ranges in brackets are in %
# Procedure: as §1, §7
# as §3, with “cocklebur,” for “cocklebur ,”, “for” for “f or”
# as §8
# slender amaranth [12] = assay: Upland soil treatment test (5); settings: dosage 100 g a.i./hectare, 20th day after treatment; note: ranges in brackets are in %
# Procedure: as §1, §7
# as §3, with “cocklebur,” for “cocklebur ,”, “for” for “f or”
# as §8
# barnyard grass [13] = assay: Upland soil treatment test (5); settings: dosage 100 g a.i./hectare, 20th day after treatment; note: ranges in brackets are in %
# Procedure: as §1, §7
# as §3, with “cocklebur,” for “cocklebur ,”, “for” for “f or”
# as §8
# barnyard grass [14] = assay: Submergence soil treatment test (4); settings: twenty days after treatment; note: ranges in brackets are in %
# Procedure: as §1, §5, §6
# umbrella plant = assay: Submergence soil treatment test (4); settings: twenty days after treatment; note: ranges in brackets are in %
# Procedure: as §1, §5, §6
# corn [15] = assay: Upland soil treatment test (5), phytotoxicity; settings: dosage 100 g a.i./hectare, 20th day after treatment
# Procedure: as §1, §7
# as §3, with “cocklebur,” for “cocklebur ,”, “for” for “f or”
# as §8
Structure (SMILES),Phytotoxicity to corn (corn [1]),Herbicidal efficacy (E): velvetleaf (velvetleaf [2]),Herbicidal efficacy (C): green foxtail (green foxtail [3]),Herbicidal efficacy (A): large crabgrass (large crabgrass [4]),Herbicidal efficacy (D): cocklebur (cocklebur [5]),Herbicidal efficacy (F): slender amaranth (slender amaranth [6]),Herbicidal efficacy (B): barnyard grass (barnyard grass [7]),Phytotoxicity to paddy rice (paddy rice; dosage 1 g a.i./10 are),Phytotoxicity to paddy rice (paddy rice; dosage 3 g a.i./10 are),Herbicidal Efficacy velvetleaf (velvetleaf [8]),Herbicidal Efficacy green foxtail (green foxtail [9]),Herbicidal Efficacy large crabgrass (large crabgrass [10]),Herbicidal Efficacy cocklebur (cocklebur [11]),Herbicidal Efficacy slender amaranth (slender amaranth [12]),Herbicidal Efficacy barnyard grass (barnyard grass [13]),Herbicidal Effficacy barnyard grass (barnyard grass [14]; dosage 1 g a.i./10 are),Herbicidal Effficacy barnyard grass (barnyard grass [14]; dosage 3 g a.i./10 are),Herbicidal Effficacy umbrella plant (umbrella plant; dosage 1 g a.i./10 are),Herbicidal Effficacy umbrella plant (umbrella plant; dosage 3 g a.i./10 are),Phyto-toxicity to corn (corn [15])
"CCCS(=O)(=O)Oc1c(C(=O)c2cc(C)c3c(c2C)C(C)CCS3(=O)=O)cnn1CC (centres unmarked) [Compound 51, 4,5,8-trimethyl-6-(1-ethyl-5-n-propanesulfonyloxypyrazol-4-yl)carbonylthiochroman-1,1-dioxide]",0 (100),5 (0),5 (0),5 (0),5 (0),5 (0),5 (0),–,–,–,–,–,–,–,–,–,–,–,–,–
Cc1ccc(S(=O)(=O)Oc2c(C(=O)c3cc(C)c4c(c3C)C(C)(C)CCS4)c(C)nn2C)cc1 [Compound 31],0 (100),4 (1-20),3 (21-40),5 (0),1 (61-80),5 (0),4 (1-20),–,–,–,–,–,–,–,–,–,–,–,–,–
"CCn1ncc(C(=O)c2ccc(S(C)(=O)=O)c(C(=O)OC)c2Cl)c1O [Comp'd A, reference compound]",0 (100),5 (0),4 (1-20),1 (61-80),1 (61-80),3 (21-40),2 (41-60),0 (100),4 (0-79),5 (0),4 (1-20),1 (61-80),1 (61-80),3 (21-40),2 (41-60),1 (61-80),4 (1-20),0 (81-100),4 (1-20),0 (100)
"CCCS(=O)(=O)Oc1c(C(=O)c2cc(C)c3c(c2C)C(C)(C)CCS3(=O)=O)c(C)nn1C [Compound 30, 4,4,5,8-tetramethyl-6-(1,3-dimethyl-5-n-propanesulfonyloxypyrazol-4-yl)carbonylthiochroman-1,1-dioxide]",0 (100),5 (0),3 (21-40),5 (0),1 (61-80),5 (0),4 (1-20),–,–,–,–,–,–,–,–,–,–,–,–,–
